Active and inactive are the calls of the source.
Legend:
Hexokinase = Hexokinase (Trypanosoma brucei, UniProt Q38C41); assay: Confirmation assay for inhibitors of Trypanosoma brucei hexokinase 1-Analogue-first series. [Related pubchem assays (depositor defined):AID1430, AID1632, AID2516, AID2560, AID2579, AID2600, AID449725, AID492951]; type: functional
ORF 73 = target: T1, ORF 73 (Human herpesvirus 8, UniProt O40947); assay: KSHV LANA DNA-binding disruption – biochemical, fluorescence polarization, cherry-picked samples, dose response (AID 504725); design: species or system Human gammaherpesvirus 8;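 also: fluorescence polarization of a labeled DNA duplex reporting LANA DNA binding; potency is for inhibitors that block LANA binding to the DNA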
T1 sequence (O40947 whole entry): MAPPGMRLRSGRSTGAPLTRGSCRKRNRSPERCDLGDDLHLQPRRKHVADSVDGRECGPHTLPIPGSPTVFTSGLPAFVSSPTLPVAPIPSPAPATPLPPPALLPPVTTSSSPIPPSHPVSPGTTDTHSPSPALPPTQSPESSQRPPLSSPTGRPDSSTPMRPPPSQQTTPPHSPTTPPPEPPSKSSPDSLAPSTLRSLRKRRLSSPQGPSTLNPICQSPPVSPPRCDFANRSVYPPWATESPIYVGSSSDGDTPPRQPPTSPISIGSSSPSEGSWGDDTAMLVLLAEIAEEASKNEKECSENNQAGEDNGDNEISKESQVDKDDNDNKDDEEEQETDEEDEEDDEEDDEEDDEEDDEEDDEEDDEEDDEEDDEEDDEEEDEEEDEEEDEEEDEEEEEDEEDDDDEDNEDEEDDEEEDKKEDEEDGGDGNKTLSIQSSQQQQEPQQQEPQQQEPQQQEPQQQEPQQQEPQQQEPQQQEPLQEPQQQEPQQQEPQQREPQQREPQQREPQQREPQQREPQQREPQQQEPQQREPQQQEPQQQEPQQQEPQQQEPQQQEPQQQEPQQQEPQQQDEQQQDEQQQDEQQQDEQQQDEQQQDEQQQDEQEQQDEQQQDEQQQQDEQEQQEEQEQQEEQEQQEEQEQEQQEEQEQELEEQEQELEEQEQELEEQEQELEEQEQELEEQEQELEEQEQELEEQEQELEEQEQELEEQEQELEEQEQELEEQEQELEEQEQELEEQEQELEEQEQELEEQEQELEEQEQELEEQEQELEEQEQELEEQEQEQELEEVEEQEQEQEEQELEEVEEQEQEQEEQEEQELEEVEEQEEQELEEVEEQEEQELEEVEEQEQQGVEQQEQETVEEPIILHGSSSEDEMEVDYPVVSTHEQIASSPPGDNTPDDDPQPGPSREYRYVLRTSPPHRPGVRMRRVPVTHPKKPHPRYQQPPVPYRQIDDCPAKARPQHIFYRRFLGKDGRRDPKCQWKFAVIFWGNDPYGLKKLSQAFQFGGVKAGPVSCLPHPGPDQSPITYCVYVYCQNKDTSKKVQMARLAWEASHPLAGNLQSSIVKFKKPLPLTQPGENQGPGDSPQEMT

HeLa = assay: viability loss in HeLa cells – cell-based, 24 h, cherry-picked samples, cytotoxicity control, dose response (AID 504726); type: functional; conditions: Homo sapiens;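 also: potency for cytotoxicity as loss of luminescence signal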
[1] = protection from phage-mediated lysis, alamar blue read-out – E. coli UTI89, K1F phage, bacterial capsule biogenesis inhibitors (AID 488966); type: functional
[2] = target: T2, Oxysterols receptor LXR-beta (Homo sapiens, UniProt P55055); assay: LXR agonists, Gal4 luciferase reporter, dose response, counter-screen for ssDAF-12 agonist project, cell-based, luminescence, HEK293, S. stercoralis campaign (AID 720737); type: functional; conditions: read-out: IC50 (the source's name)
T2 sequence (P55055 whole entry): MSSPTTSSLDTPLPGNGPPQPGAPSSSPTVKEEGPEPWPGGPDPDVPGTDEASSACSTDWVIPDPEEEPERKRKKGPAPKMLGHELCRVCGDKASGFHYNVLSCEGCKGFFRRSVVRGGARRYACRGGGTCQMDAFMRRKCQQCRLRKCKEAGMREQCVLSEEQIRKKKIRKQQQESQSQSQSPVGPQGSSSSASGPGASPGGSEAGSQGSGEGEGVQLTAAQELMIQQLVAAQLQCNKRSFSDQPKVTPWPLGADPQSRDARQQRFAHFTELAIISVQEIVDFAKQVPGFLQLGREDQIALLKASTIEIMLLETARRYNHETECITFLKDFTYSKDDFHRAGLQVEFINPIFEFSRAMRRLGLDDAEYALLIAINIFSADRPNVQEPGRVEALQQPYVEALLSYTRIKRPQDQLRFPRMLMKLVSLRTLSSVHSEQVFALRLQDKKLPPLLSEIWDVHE

[3] = Luminescence-based cell-based high throughput dose response assay to identify activators of the DAF-12 from the parasite S. stercoralis (ssDAF-12).; type: functional
[4] = viability loss in HeLa cells – cytotoxicity control for MgcRacGAP inhibitor project, dose response (AID 624300); type: functional
[5] = target: T3, Rac GTPase-activating protein 1 (Homo sapiens, UniProt Q9H0H5); assay: blockers of MgcRacGAP-driven Rac1 GTP hydrolysis – biochemical, ADP Hunter fluorescence, primary and confirmatory, confirmation (AID 624330); type: functional
T3 sequence (Q9H0H5 whole entry): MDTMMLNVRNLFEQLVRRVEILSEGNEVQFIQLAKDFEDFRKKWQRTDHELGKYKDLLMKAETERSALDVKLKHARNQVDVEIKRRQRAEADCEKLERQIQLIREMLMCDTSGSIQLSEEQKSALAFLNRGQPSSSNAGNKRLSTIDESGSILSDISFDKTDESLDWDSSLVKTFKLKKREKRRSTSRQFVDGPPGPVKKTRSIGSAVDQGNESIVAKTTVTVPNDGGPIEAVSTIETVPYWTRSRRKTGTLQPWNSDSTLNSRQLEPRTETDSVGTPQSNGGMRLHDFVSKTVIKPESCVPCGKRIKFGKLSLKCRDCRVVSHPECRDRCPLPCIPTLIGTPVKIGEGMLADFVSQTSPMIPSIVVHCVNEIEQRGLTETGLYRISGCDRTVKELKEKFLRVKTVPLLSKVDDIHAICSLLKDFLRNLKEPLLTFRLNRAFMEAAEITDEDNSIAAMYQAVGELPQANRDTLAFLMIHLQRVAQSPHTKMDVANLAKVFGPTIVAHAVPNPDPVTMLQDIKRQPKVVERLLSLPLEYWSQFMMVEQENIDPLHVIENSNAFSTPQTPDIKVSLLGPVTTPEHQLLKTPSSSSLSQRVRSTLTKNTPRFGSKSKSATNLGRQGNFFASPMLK

[6] = target: Glutathione S-transferase omega-1 (Homo sapiens, UniProt P78417); assay: IC50 of human GSTO1 blockade by gel ABPP – biochemical, SE-Rh probe, in-gel fluorescence, powder samples, set 2, late-stage follow-up (AID 463142); type: functional
Glutathione S-transferase omega-1, sequence (P78417 whole entry): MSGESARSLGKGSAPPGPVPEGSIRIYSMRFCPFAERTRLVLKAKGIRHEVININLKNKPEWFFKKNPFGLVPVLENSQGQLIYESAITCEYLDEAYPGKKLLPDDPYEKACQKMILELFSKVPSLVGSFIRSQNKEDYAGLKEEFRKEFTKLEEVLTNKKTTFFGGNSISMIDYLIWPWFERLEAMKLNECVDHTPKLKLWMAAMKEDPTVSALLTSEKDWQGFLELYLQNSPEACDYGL

[7] = target: Potassium voltage-gated channel subfamily KQT member 2 (Rattus norvegicus, UniProt O88943); assay: potentiation of rat KCNQ2 current – cell-based, retigabine-insensitive compounds, dose response (AID 2654); type: functional
Potassium voltage-gated channel subfamily KQT member 2, sequence (O88943 whole entry): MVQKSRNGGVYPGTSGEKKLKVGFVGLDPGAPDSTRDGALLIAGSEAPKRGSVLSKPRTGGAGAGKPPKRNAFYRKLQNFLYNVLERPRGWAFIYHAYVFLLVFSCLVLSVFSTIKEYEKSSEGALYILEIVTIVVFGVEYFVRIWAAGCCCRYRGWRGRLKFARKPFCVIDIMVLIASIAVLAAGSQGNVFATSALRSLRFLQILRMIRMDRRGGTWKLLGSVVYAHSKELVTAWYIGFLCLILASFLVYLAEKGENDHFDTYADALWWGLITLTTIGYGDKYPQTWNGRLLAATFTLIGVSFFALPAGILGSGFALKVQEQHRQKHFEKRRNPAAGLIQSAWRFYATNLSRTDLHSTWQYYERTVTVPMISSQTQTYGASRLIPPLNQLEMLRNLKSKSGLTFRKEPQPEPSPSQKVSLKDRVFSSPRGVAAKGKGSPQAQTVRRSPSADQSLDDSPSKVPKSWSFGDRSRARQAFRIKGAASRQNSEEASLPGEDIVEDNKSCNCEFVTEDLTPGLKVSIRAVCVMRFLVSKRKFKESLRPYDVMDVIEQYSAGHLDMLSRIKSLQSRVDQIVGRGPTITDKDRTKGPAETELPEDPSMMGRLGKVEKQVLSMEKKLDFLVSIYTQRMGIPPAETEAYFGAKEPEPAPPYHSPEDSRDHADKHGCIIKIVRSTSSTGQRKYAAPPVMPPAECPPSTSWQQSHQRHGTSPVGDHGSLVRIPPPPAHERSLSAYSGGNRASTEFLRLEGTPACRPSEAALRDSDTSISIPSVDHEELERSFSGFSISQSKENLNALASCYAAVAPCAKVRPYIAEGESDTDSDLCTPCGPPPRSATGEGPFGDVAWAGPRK

H9c2 = assay: cells; type: functional, cell-based; conditions: Rattus norvegicus, H9c2, Myocardium;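 also: confirmatory concentration-response retest of ultra-high-throughput screening hits for modulation of myocardial damage; cell death induced by hydrogen peroxide oxidative stress; compound pretreatment for 60 min then peroxide exposure for 2 h; potency is for protecting the cells against peroxide damage rather than for killing them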
X-box-binding protein 1 = target: T4, X-box-binding protein 1 (Homo sapiens, UniProt P17861); type: functional, Cricetulus griseus;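 also: confirmatory dose-response counter-screen serving a CHOP assay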
T4 sequence (P17861 whole entry): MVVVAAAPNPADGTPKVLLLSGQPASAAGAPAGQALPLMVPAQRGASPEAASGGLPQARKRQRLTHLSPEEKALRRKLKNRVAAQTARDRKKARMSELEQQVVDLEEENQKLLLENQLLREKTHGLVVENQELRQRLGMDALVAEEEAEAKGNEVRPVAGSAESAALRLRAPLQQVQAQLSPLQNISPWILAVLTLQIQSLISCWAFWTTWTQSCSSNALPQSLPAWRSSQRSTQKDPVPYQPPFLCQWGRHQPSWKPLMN

[8] = target: DNA damage-inducible transcript 3 protein (Mus musculus, UniProt P35639); type: functional, Cricetulus griseus
DNA damage-inducible transcript 3 protein, sequence (P35639 whole entry): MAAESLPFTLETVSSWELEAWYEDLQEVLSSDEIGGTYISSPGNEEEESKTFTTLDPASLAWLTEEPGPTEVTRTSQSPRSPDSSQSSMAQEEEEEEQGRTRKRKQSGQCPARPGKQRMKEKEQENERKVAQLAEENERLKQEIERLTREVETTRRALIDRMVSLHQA

[9] = target: G-protein coupled receptor 55 (Homo sapiens, UniProt Q9Y2T6); assay: inhibition of LPI-stimulated GPR55 beta-arrestin translocation – imaging, U2OS, beta-arrestin-GFP, LPI agonist, primary screen (AID 2013); type: functional;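 also: antagonist potency measured as reduced agonist-driven arrestin aggregation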
G-protein coupled receptor 55, sequence (Q9Y2T6 whole entry): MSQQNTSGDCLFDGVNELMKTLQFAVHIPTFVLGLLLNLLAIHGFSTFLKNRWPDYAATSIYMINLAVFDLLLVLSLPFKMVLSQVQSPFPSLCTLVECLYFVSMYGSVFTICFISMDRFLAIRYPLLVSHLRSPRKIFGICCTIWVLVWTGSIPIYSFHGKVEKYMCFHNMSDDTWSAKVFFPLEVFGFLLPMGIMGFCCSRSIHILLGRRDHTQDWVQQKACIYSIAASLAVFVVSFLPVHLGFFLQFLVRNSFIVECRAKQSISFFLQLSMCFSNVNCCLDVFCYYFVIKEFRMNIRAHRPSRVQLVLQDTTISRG

Hexokinase, sequence (Q38C41 whole entry): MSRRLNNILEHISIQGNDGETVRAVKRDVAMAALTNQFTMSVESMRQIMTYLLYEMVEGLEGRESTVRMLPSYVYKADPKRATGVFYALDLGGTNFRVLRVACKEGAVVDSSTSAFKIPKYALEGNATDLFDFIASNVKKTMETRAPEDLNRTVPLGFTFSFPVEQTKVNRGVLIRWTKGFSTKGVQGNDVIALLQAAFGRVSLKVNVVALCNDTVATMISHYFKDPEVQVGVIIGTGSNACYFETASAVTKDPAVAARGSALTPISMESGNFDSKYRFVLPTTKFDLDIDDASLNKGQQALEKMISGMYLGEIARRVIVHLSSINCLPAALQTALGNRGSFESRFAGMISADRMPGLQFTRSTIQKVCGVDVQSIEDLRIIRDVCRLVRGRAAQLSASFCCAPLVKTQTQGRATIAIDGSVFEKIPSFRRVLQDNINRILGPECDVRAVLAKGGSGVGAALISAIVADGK

Compound: O=c1c2ccc(F)cc2sn1Cc1ccccc1
- IC50 (Hexokinase): > 25 µM (inactive)

Compound: CNc1c2cccc(C)c2nc2c(C(=O)NCCN(C)C)cccc12
- AC50 (ORF 73): 5.35 µM (active)
- AC50 (HeLa): 1.01 µM (active)
- IC50 [1]: > 150 µM (active)
- EC50 [2]: > 67.5 µM (inactive)
- IC50 [3]: > 67.5 µM (inactive)
- CC50 [4]: 3.39 µM (active)
- IC50 [5]: 34.6 µM (active)

Compound: O=C(NC1CCCCC1)C(c1cccnc1)N(C(=O)CCl)c1ccc(Cl)c(Cl)c1 (centres undefined)
- IC50 [6]: 0.045 µM (active)

Compound: O=C(Nc1ccc(Br)nc1)Nc1cccc(F)c1
- EC50 [7]: 4.04 µM (active)

Compound: CCOC(=O)c1c(C)[nH]c(O)c1/C=N/c1ccc(Cl)cc1
- IC50 (H9c2): 13.8 µM (active)
- Absolute IC50 (XBP1) (X-box-binding protein 1): 10 µM
- Absolute IC50 (CHOP) [8]: 10 µM

Compound: CCOC(=O)C1=C(C)N=C(C)/C(=C(\O)OCC)C1c1ccc(Br)o1 (centres undefined)
- IC50 [9]: 2.42 µM (active)
